Where a SMILES comes first, the peptide text is derived from it. The star is where a group is joined. Cbz = O=C(OCc1ccccc1)*
How the values were obtained:
[1] = system: ERCC1 protein isoforms; test: Western blot of ERCC1 protein isoforms after proteasome inhibition; format: cell-based, human; settings: 2 μM for 24 h
Method: Proteins were extracted by lysis in RIPA buffer (50 mM Tris, 150 mM NaCl, 5 mM EDTA, 0.5% sodium deoxycholic acid, 0.5% NP-40, 0.1% SDS) supplemented with a protease inhibitor cocktail (Complete; Roche Molecular). For nucleus and cytoplasm protein, a first extraction and separation was done with a buffer containing 10 mM HEPES, 10 mM KCl, 1 mM DTT, 1 mM PMSF and protease inhibitor cocktail supplemented with 0.3% NP40. The nucleus fraction was next resuspended in a buffer containing 20 mM HEPES and 400 mM NaCl. Protein were then separated by SDS-PAGE and transferred to nitrocellulose membranes by the iBlot® 7-Minute Blotting System (Invitrogen). Blots were incubated with primary and secondary peroxidase-conjugated antibodies and chemiluminescent detection was done using the Dura HRP Substrate (Thermo scientific).
For proteasome inhibition, cells were treated with MG132 (Merck) at 2 μM for 24 h.

[2] = system: cell lines without ERCC1-202 isoform expression (A549 ERCC1-deficient); test: Cell cycle / DNA content by flow cytometry after cisplatin; format: cell-based, human; settings: 30 and 300 nM for 48 hours
Method: To study effect of cisplatin on cell cycle arrest, cells were treated with 30 nM or 300 nM of cisplatin for 48 h. For high DNA content analysis, cells were blocked in G2/M cell cycle phase with Karyomax colcemid solution (Gibco-Invitrogen) at 0.1 μg/ml for 6 h.
DNA content was determined in ethanol-fixed cells, stained with propidium iodide and analyzed using a Becton Dickinson FACScalibur flow cytometer and the CellQuest Pro software.

| Structure (SMILES) | ERCC1 isoform protein expression level after proteasome inhibition [1] | cells blocked in G2/M cell cycle phase [2] |
| --- | --- | --- |
| CC(C)C[C@@H](C=O)NC(=O)[C@H](CC(C)C)NC(=O)[C@H](CC(C)C)NC(=O)OCc1ccccc1 [MG132] (Cbz-Leu-Leu-Leu-aldehyde) | increase in ERCC1-201, -203 and -204 expression level |  |
| N.N.[Cl][Pt][Cl] [cisplatin] |  | 60-80% |

— US9702875B2 (priority 2006, dated 2017)
